From PubChem BioAssay (NCI)
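Following 48 hours of exposure in 96-well plates, responses at five concentrations were used to interpolate endpoints linearly. GI50 is the concentration that inhibits growth by half. TGI: concentration producing complete growth inhibition.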

How the values were obtained:
Assay in all cases: NCI tumour cell line growth inhibition, 48 h
786-0 renal = test system: 786-0 renal
A498 renal = test system: A498 renal
ACHN renal = test system: ACHN renal
BT-549 breast = test system: BT-549 breast
CAKI-1 renal = test system: CAKI-1 renal
CCRF-CEM leukemia = test system: CCRF-CEM leukemia
DU-145 prostate = test system: DU-145 prostate
EKVX NSCLC = test system: EKVX NSCLC
HCC-2998 colon = test system: HCC-2998 colon
HCT-116 colon = test system: HCT-116 colon
HCT-15 colon = test system: HCT-15 colon
HL-60(TB) leukemia = test system: HL-60(TB) leukemia
HOP-62 NSCLC = test system: HOP-62 NSCLC
HOP-92 NSCLC = test system: HOP-92 NSCLC
HS 578T breast = test system: HS 578T breast
HT29 colon = test system: HT29 colon
IGROV1 ovarian = test system: IGROV1 ovarian
K-562 leukemia = test system: K-562 leukemia
KM12 colon = test system: KM12 colon
LOX IMVI melanoma = test system: LOX IMVI melanoma
M14 melanoma = test system: M14 melanoma
MALME-3M melanoma = test system: MALME-3M melanoma
MDA-MB-231 breast = test system: MDA-MB-231 breast
MDA-MB-468 breast = test system: MDA-MB-468 breast
MOLT-4 leukemia = test system: MOLT-4 leukemia
NCI-H226 lung = test system: NCI-H226 lung
NCI-H23 lung = test system: NCI-H23 lung
NCI-H460 lung = test system: NCI-H460 lung
NCI-H522 lung = test system: NCI-H522 lung
OVCAR-3 ovarian = test system: OVCAR-3 ovarian
OVCAR-5 ovarian = test system: OVCAR-5 ovarian
RPMI-8226 leukemia = test system: RPMI-8226 leukemia
SF-295 CNS = test system: SF-295 CNS
SF-539 CNS = test system: SF-539 CNS
SK-MEL-2 melanoma = test system: SK-MEL-2 melanoma
SK-MEL-28 melanoma = test system: SK-MEL-28 melanoma
SK-MEL-5 melanoma = test system: SK-MEL-5 melanoma
SK-OV-3 ovarian = test system: SK-OV-3 ovarian
SN12C renal = test system: SN12C renal
SNB-75 CNS = test system: SNB-75 CNS
SR leukemia = test system: SR leukemia
SW-620 colon = test system: SW-620 colon
T-47D breast = test system: T-47D breast
U251 CNS = test system: U251 CNS
UACC-257 melanoma = test system: UACC-257 melanoma
UACC-62 melanoma = test system: UACC-62 melanoma
UO-31 renal = test system: UO-31 renal

In the case of `C=Cn1cc(C(=O)O)c(=O)c2cc(F)c(N3CCN(c4nccc(-c5nccs5)n4)CC3)cc21`, the GI50 (786-0 renal) is reported as 225 nM, the TGI (786-0 renal) is reported as 2920 nM and the GI50 (A498 renal) is reported as 55.4 nM. For the same molecule, the TGI (A498 renal) was 2780 nM, the GI50 (ACHN renal) was 16.6 nM and the TGI (ACHN renal) was 1170 nM. It also gave a GI50 (BT-549 breast) of 194 nM, a TGI (BT-549 breast) of 1560 nM and a GI50 (CAKI-1 renal) of 23.7 nM. For the same molecule, the TGI (CAKI-1 renal) was 839 nM, the GI50 (CCRF-CEM leukemia) was 61.6 nM and the TGI (CCRF-CEM leukemia) was over 100000 nM. It also gave a GI50 (DU-145 prostate) of 145 nM, a TGI (DU-145 prostate) of 4080 nM and a GI50 (EKVX NSCLC) of 283 nM. The TGI (EKVX NSCLC) was 4300 nM, the GI50 (HCC-2998 colon) was 80.4 nM and the TGI (HCC-2998 colon) was 2030 nM. It also gave a GI50 (HCT-116 colon) of 30.4 nM, a TGI (HCT-116 colon) of 1420 nM and a GI50 (HCT-15 colon) of 40.5 nM. For the same molecule, the TGI (HCT-15 colon) was 1600 nM, the GI50 (HL-60(TB) leukemia) was 209 nM and the TGI (HL-60(TB) leukemia) was 2950 nM. The GI50 (HOP-62 NSCLC) was 139 nM, the TGI (HOP-62 NSCLC) was 3690 nM and the GI50 (HOP-92 NSCLC) was 210 nM. For the same molecule, the TGI (HOP-92 NSCLC) was 1660 nM, the GI50 (HS 578T breast) was 86.5 nM and the TGI (HS 578T breast) was 1490 nM. The GI50 (HT29 colon) was 46.4 nM, the TGI (HT29 colon) was 2490 nM and the GI50 (IGROV1 ovarian) was 41.8 nM. It also gave a TGI (IGROV1 ovarian) of 1510 nM, a GI50 (K-562 leukemia) of 61.4 nM and a TGI (K-562 leukemia) of over 100000 nM. For the same molecule, the GI50 (KM12 colon) was 78.5 nM, the TGI (KM12 colon) was 2670 nM and the GI50 (LOX IMVI melanoma) was 35 nM. It also gave a TGI (LOX IMVI melanoma) of 195 nM, a GI50 (M14 melanoma) of 238 nM and a TGI (M14 melanoma) of 3380 nM. It also gave a GI50 (MALME-3M melanoma) of 50.6 nM, a TGI (MALME-3M melanoma) of 1330 nM and a GI50 (MDA-MB-231 breast) of 345 nM. The TGI (MDA-MB-231 breast) was 3440 nM, the GI50 (MDA-MB-468 breast) was 109 nM and the TGI (MDA-MB-468 breast) was 1230 nM. It also gave a GI50 (MOLT-4 leukemia) of 40.4 nM, a TGI (MOLT-4 leukemia) of 2520 nM and a GI50 (NCI-H226 lung) of 60.7 nM. For the same molecule, the TGI (NCI-H226 lung) was 517 nM, the GI50 (NCI-H23 lung) was 55.8 nM and the TGI (NCI-H23 lung) was 1270 nM. For the same molecule, the GI50 (NCI-H460 lung) was 21.5 nM, the TGI (NCI-H460 lung) was 1390 nM and the GI50 (NCI-H522 lung) was 66.7 nM. It also gave a TGI (NCI-H522 lung) of 1280 nM, a GI50 (OVCAR-3 ovarian) of 88.6 nM and a TGI (OVCAR-3 ovarian) of 2770 nM. The GI50 (OVCAR-5 ovarian) was 234 nM, the TGI (OVCAR-5 ovarian) was 3370 nM and the GI50 (RPMI-8226 leukemia) was 62 nM. The TGI (RPMI-8226 leukemia) was 1450 nM, the GI50 (SF-295 CNS) was 29.1 nM and the TGI (SF-295 CNS) was 1550 nM. The GI50 (SF-539 CNS) was 72.8 nM, the TGI (SF-539 CNS) was 2310 nM and the GI50 (SK-MEL-2 melanoma) was 77.1 nM. The TGI (SK-MEL-2 melanoma) was 1260 nM, the GI50 (SK-MEL-28 melanoma) was 96.4 nM and the TGI (SK-MEL-28 melanoma) was 1260 nM. The GI50 (SK-MEL-5 melanoma) was 36.4 nM, the TGI (SK-MEL-5 melanoma) was 576 nM and the GI50 (SK-OV-3 ovarian) was 208 nM. It also gave a TGI (SK-OV-3 ovarian) of 3790 nM, a GI50 (SN12C renal) of 119 nM and a TGI (SN12C renal) of 2530 nM. The GI50 (SNB-75 CNS) was 115 nM, the TGI (SNB-75 CNS) was 1630 nM and the TGI (SR leukemia) was 1530 nM. The GI50 (SW-620 colon) was 23.4 nM, the TGI (SW-620 colon) was 2690 nM and the GI50 (T-47D breast) was 118 nM. For the same molecule, the TGI (T-47D breast) was over 100000 nM, the GI50 (U251 CNS) was 85.8 nM and the TGI (U251 CNS) was over 100000 nM. It also gave a GI50 (UACC-257 melanoma) of 172 nM, a TGI (UACC-257 melanoma) of 2900 nM and a GI50 (UACC-62 melanoma) of 24.6 nM. The TGI (UACC-62 melanoma) was 175 nM, the GI50 (UO-31 renal) was 25.9 nM and the TGI (UO-31 renal) was 782 nM.

`COc1ccc(-c2cc(-c3ccc(Nc4nc(Nc5ccc(Cl)cc5)nc(Nc5ccc(Cl)cc5)n4)cc3)nc(N)c2C#N)cc1` showed a GI50 (MDA-MB-468 breast) of 369 nM and a TGI (MDA-MB-468 breast) of 1960 nM.

`COc1cc[nH]c1/C=C1\C(=O)Nc2ccc(F)c(C#C[C@@H](O)[C@@H](N)[C@@H](C)O)c21` gave a GI50 (MDA-MB-468 breast) of 476 nM and a TGI (MDA-MB-468 breast) of 1180 nM.

`Cc1cc(NC(=O)C2c3ccccc3C(=O)N(CC(C)C)C2c2cccs2)no1` (stereo unspecified) gave a GI50 (MDA-MB-468 breast) of 43800 nM and a TGI (MDA-MB-468 breast) of over 100000 nM.

`O=C(Nc1n[nH]c2nc(-c3ccco3)c(Br)cc12)C1CC1` gave a TGI (MDA-MB-468 breast) of over 25000 nM.

For `C1CCC([PH+](C2CCCCC2)C2CCCCC2[PH+](C2CCCCC2)C2CCCCC2)CC1.[Au].[CH-]1CCCCC1C1CCCC[N-]1` (stereo unspecified), the GI50 (MDA-MB-468 breast) was 154 nM and the TGI (MDA-MB-468 breast) was 641 nM.

Molecule `O=C(Nc1ccncc1)C(=O)c1cn(S(=O)(=O)c2ccc(Br)cc2)c2ccccc12` has a GI50 (MDA-MB-468 breast) of 608 nM and a TGI (MDA-MB-468 breast) of 7840 nM.

In the case of `COc1cccc(NC(=O)c2sc3nc4c(cc3c2N)CCCC4)c1`, the GI50 (MDA-MB-468 breast) is reported as 239 nM and the TGI (MDA-MB-468 breast) is reported as 874 nM.

`O=C1C=C[C@]2(C[C@@H](c3cccc(C(F)(F)F)c3)O[C@@H](c3cccc(C(F)(F)F)c3)O2)O1` showed a GI50 (MDA-MB-468 breast) of 1670 nM and a TGI (MDA-MB-468 breast) of 3590 nM.

Molecule `O=C1[C@H]2Cc3c([nH]c4ccccc34)[C@@H](c3ccc(Br)cc3)N2C(=O)CN1C1CCN(Cc2ccccc2)CC1` has a GI50 (MDA-MB-468 breast) of 1140 nM and a TGI (MDA-MB-468 breast) of 4850 nM.

`CCOC(=O)c1cnc(SCc2ccc(Cl)c(Cl)c2)nc1N1CC1` was tested, and the GI50 (MDA-MB-468 breast) was 2400 nM and the TGI (MDA-MB-468 breast) was 6140 nM.

Molecule `O=[N+]([O-])c1ccc(N/N=C\c2cc(Cl)ccc2O)nc1` has a GI50 (MDA-MB-468 breast) of 2510 nM and a TGI (MDA-MB-468 breast) of 7250 nM.

With `Cc1cc2c(C)c3cc(C)c(N)cc3nc2cc1N` the GI50 (MDA-MB-468 breast) was 399 nM and the TGI (MDA-MB-468 breast) was 2370 nM.
